Laboratory results as given in patent US8030282B2, “Motilide polymorphs” (priority 2006, dated 2011).
Converted amounts (≈) assume the structure as drawn.

Experiments:
[1] = Gravimetric vapor sorption (GVS) moisture sorption isotherm; type: physicochemical; conditions: for mass gain/loss upon multiple sorption and desorption cycles / weight increase / mass uptake between 0 and 90% RH: GVS, 25° C.; for XRPD re-analysis under ambient conditions after GVS: after GVS weight uptake/loss; for weight increase / mass uptake between 0 and 90% RH: 0 to 90% RH
Protocol: GVS data was also collected by Pharmorphix, Ltd. All samples were run on a Hiden IGASorp moisture sorption analyzer running CFRSorp software. Sample sizes were typically 10 mg. A moisture adsorption-desorption isotherm was performed as outlined below, with two scans giving one complete cycle. All samples were loaded and unloaded at typical ambient (room) humidity and temperature (40% RH, 25° C.). All samples were analyzed by XRPD after GVS analysis. The standard isotherm was performed at 25° C. at 10% RH intervals over a 0 to 90% RH range. [table]

[2] = Retention of crystallinity on heating or vacuum drying (XRPD); type: physicochemical
Excerpt: XRPD patterns were collected on a Bruker AXS C2 GADDS diffractometer using Cu Kα radiation (40 kV, 40 mA), automated XYZ stage, laser video microscope for auto-sample positioning and a HiStar 2-dimensional area detector. X-ray optics consisted of a single Göbel multilayer mirror coupled with a pinhole collimator of 0.3 mm.
The beam divergence, i.e. the effective size of the X-ray beam on the sample, was approximately 4 mm. A θ-θ continuous scan mode was employed with a sample-detector distance of 20 cm which gave an effective 2θ range of 3.2° to 29.7°. Typically the sample would be exposed to the X-ray beam for 120 seconds.

[3] = Form stability under aqueous conditions / during solubility analysis; type: physicochemical
[4] = Aqueous solubility of polymorphs of Compound Ia; type: physicochemical
[5] = Storage stability at 40° C. and 75% RH (XRPD); type: physicochemical; conditions: for change on storage at 40° C. and 75% RH: one week
[6] = biological target: motilin receptor (Homo sapiens, UniProt O43193); conditions: cited from earlier work
Chain of motilin receptor (O43193 whole entry, species assumed): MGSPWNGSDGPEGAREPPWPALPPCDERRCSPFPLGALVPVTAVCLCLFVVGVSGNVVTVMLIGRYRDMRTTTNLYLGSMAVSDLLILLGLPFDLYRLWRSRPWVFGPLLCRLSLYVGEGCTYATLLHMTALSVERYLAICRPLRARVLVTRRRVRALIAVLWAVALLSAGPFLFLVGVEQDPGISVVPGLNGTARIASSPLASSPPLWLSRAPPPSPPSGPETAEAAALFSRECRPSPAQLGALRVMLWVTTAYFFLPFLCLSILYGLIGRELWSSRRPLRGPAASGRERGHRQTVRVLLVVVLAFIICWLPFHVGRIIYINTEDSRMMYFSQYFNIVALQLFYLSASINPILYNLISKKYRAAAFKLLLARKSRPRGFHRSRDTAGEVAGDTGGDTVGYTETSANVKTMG

SMILES	mass gain/loss upon multiple sorption and desorption cycles [1]	XRPD re-analysis under ambient conditions after GVS [1]	weight increase / mass uptake between 0 and 90% RH [1] [%]	polymorph change under aqueous conditions / during solubility analysis [3]	further results
CC[C@H]1OC(=O)[C@H](C)[C@@H](O[C@H]2C[C@@](C)(OC)[C@@H](O)[C@H](C)O2)[C@H](C)[C@@H](O[C@@H]2O[C@H](C)C[C@H](N(C)C(C)C)[C@H]2O)[C@](C)(O)C[C@@H](C)[C@H](OCC(=O)NC)[C@H](C)[C@@H](O)[C@]1(C)O [Polymorph II]	changed drastically	loss of crystallinity			weight loss when kept at between 5 and 0% RH ([1]; between 5 and 0% RH): 4%; crystallinity during vacuum drying ([2]; vacuum drying at 30° C. for 72 h): loses crystallinity
CC[C@H]1OC(=O)[C@H](C)[C@@H](O[C@H]2C[C@@](C)(OC)[C@@H](O)[C@H](C)O2)[C@H](C)[C@@H](O[C@@H]2O[C@H](C)C[C@H](N(C)C(C)C)[C@H]2O)[C@](C)(O)C[C@@H](C)[C@H](OCC(=O)NC)[C@H](C)[C@@H](O)[C@]1(C)O [Polymorph IV]	very uniform	did not lead to a change in XRPD pattern	3.5	Neither storage at 40 °C at 75% R^H for 10 weeks nor handling during solubility analysis produced any significant changes	XRPD pattern on heating ([2]; heating up to the melt): no change in XRPD pattern; solubility ([4]; water): 770 µg/mL (≈ 922 µM); change on storage at 40° C. at 75% RH ([5]; 10 weeks): Neither storage at 40 °C at 75% R^H for 10 weeks nor handling during solubility analysis produced any significant changes
CC[C@H]1OC(=O)[C@H](C)[C@@H](O[C@H]2C[C@@](C)(OC)[C@@H](O)[C@H](C)O2)[C@H](C)[C@@H](O[C@@H]2O[C@H](C)C[C@H](N(C)C(C)C)[C@H]2O)[C@](C)(O)C[C@@H](C)[C@H](OCC(=O)NC)[C@H](C)[C@@H](O)[C@]1(C)O [Polymorph I]	changed drastically		8.5	converted to a second polymorph, referred to as Polymorph II	
CC[C@H]1OC(=O)[C@H](C)[C@@H](O[C@H]2C[C@@](C)(OC)[C@@H](O)[C@H](C)O2)[C@H](C)[C@@H](O[C@@H]2O[C@H](C)C[C@H](N(C)C(C)C)[C@H]2O)[C@](C)(O)C[C@@H](C)[C@H](OCC(=O)NC)[C@H](C)[C@@H](O)[C@]1(C)O [Polymorph VII]	changed drastically	loss of crystallinity	3	converted to a mixture of Polymorphs II and IV	weight change by GVS analysis [1]: constant weight loss; aqueous solubility [4]: 750 µg/mL (≈ 898 µM); change on storage at 40° C. and 75% RH [5]: lost crystallinity
CC[C@H]1OC(=O)[C@H](C)[C@@H](O[C@H]2C[C@@](C)(OC)[C@@H](O)[C@H](C)O2)[C@H](C)[C@@H](O[C@@H]2O[C@H](C)C[C@H](N(C)C(C)C)[C@H]2O)[C@](C)(O)C[C@@H](C)[C@H](OCC(=O)NC)[C@H](C)[C@@H](O)[C@]1(C)O [Polymorph VI]	changed drastically				change on storage at 40° C. at 75% RH ([5]; duration not stated): converted to Polymorph IV
CC[C@H]1OC(=O)[C@H](C)[C@@H](O[C@H]2C[C@@](C)(OC)[C@@H](O)[C@H](C)O2)[C@H](C)[C@@H](O[C@@H]2O[C@H](C)C[C@H](N(C)C(C)C)[C@H]2O)[C@](C)(O)C[C@@H](C)[C@H](OCC(=O)NC)[C@H](C)[C@@H](O)[C@]1(C)O [Polymorph V]				converted to Polymorph II	aqueous solubility [4]: 720 µg/mL (≈ 862 µM); change on storage at 40° C. and 75% RH [5]: decreased in crystallinity
CC[C@H]1OC(=O)[C@H](C)[C@@H](O[C@H]2C[C@@](C)(OC)[C@@H](O)[C@H](C)O2)[C@H](C)[C@@H](O[C@@H]2O[C@H](C)C[C@H](N(C)C)[C@H]2O)[C@](C)(O)C[C@@H](C)C(=O)[C@H](C)[C@@H](O)[C@]1(C)O [erythromycin A (1), Erythromycin A]					motilin agonist activity [6]: motilin agonist activity
